Data reported in PubChem BioAssay AID1918994 (Molecular Pharmacology Branch, DTP, NCI, 2023).
“And” between values parts separate entries of the source, which are not always exact repeats. Equal entries are not always repeated.

Test system: 292921-168-R-J2-PDC complex spheroid growth
Assay: Anticancer human tumor 292921-168-R-J2-PDC patient-derived pancreatic carcinoma cell line growth inhibition [AhR]
Settings: for viability, T/C: stronger effect = lower value
In short: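 Complex tumor spheroids co-cultured with HUVEC and human MSC stroma; AhR antagonists tested in combination with standard-of-care and investigational agents. Top concentration at or near clinical Cmax (else 10 microM), half-log dilutions; growth expressed as percent test/control.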

[1] = curve of first compound, second compound 0.1 µM
[2] = curve of first compound, second compound 0.316 µM
[3] = curve of first compound, second compound 1 µM
[4] = curve of first compound, second compound 3.16 µM
[5] = curve of first compound, second compound 10 µM
[6] = second compound 0.1 µM, first compound 0.0316 µM
[7] = second compound 0.1 µM, first compound 0.1 µM
[8] = second compound 0.1 µM, first compound 0.316 µM
[9] = second compound 0.1 µM, first compound 1 µM
[10] = second compound 0.1 µM, first compound 3.16 µM
[11] = second compound 0.1 µM, first compound 10 µM
[12] = second compound 0.316 µM, first compound 0.0316 µM
[13] = second compound 0.316 µM, first compound 0.1 µM
[14] = second compound 0.316 µM, first compound 0.316 µM
[15] = second compound 0.316 µM, first compound 1 µM
[16] = second compound 0.316 µM, first compound 3.16 µM
[17] = second compound 0.316 µM, first compound 10 µM
[18] = second compound 1 µM, first compound 0.0316 µM
[19] = second compound 1 µM, first compound 0.1 µM
[20] = second compound 1 µM, first compound 0.316 µM
[21] = second compound 1 µM, first compound 1 µM
[22] = second compound 1 µM, first compound 3.16 µM
[23] = second compound 1 µM, first compound 10 µM
[24] = second compound 3.16 µM, first compound 0.0316 µM
[25] = second compound 3.16 µM, first compound 0.1 µM
[26] = second compound 3.16 µM, first compound 0.316 µM
[27] = second compound 3.16 µM, first compound 1 µM
[28] = second compound 3.16 µM, first compound 3.16 µM
[29] = second compound 3.16 µM, first compound 10 µM
[30] = second compound 10 µM, first compound 0.0316 µM
[31] = second compound 10 µM, first compound 0.1 µM
[32] = second compound 10 µM, first compound 0.316 µM
[33] = second compound 10 µM, first compound 1 µM
[34] = second compound 10 µM, first compound 3.16 µM
[35] = second compound 10 µM, first compound 10 µM
[36] = second compound 0.1 µM, first compound 0.00316 µM
[37] = second compound 0.1 µM, first compound 0.01 µM
[38] = second compound 0.316 µM, first compound 0.00316 µM
[39] = second compound 0.316 µM, first compound 0.01 µM
[40] = second compound 1 µM, first compound 0.00316 µM
[41] = second compound 1 µM, first compound 0.01 µM
[42] = second compound 3.16 µM, first compound 0.00316 µM
[43] = second compound 3.16 µM, first compound 0.01 µM
[44] = second compound 10 µM, first compound 0.00316 µM
[45] = second compound 10 µM, first compound 0.01 µM
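Further: spheroids exposed to compounds for seven days after three days of growth.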

| SMILES | IC50 [1] | IC50 [2] | IC50 [3] | IC50 [4] | IC50 [5] | viability, T/C [6] | viability, T/C [7] | viability, T/C [8] | viability, T/C [9] | viability, T/C [12] | viability, T/C [13] | viability, T/C [14] | viability, T/C [15] | viability, T/C [18] | viability, T/C [19] | viability, T/C [20] | viability, T/C [24] | viability, T/C [25] | viability, T/C [30] | viability, T/C [31] | further results |
| --- | --- | --- | --- | --- | --- | --- | --- | --- | --- | --- | --- | --- | --- | --- | --- | --- | --- | --- | --- | --- | --- |
| NS(=O)(=O)OCC1CC(n2ccc3c(NC4CCc5ccccc54)ncnc32)CC1O (configuration not stated) + CC(CO)NC(=O)c1cc(-c2ccc(Cl)cc2)nn(-c2cnn(C)c2)c1=O | 0.213 µM | 0.221 µM | 0.223 µM | 0.208 µM | 0.169 µM | 117% | 98.1% | 24.8% | 5.49% | 125% | 98% | 28.5% | 6.03% | 116% | 101% | 27.8% | 105% | 93.5% | 89.6% | 73.1% | viability, T/C [10]: 4.31%; viability, T/C [11]: 5.11%; viability, T/C [16]: 3.81%; viability, T/C [17]: 4.31%; viability, T/C [21]: 5.81%; viability, T/C [22]: 4.08%; viability, T/C [23]: 4.94%; viability, T/C [26]: 25.2%; viability, T/C [27]: 5.74%; viability, T/C [28]: 4%; viability, T/C [29]: 5.65%; viability, T/C [32]: 22.2%; viability, T/C [33]: 6.76%; viability, T/C [34]: 3.96%; viability, T/C [35]: 5.6% |
| CC1COCCN1c1cc(-c2ccnn2C)c2ccnc(-c3ccn[nH]3)c2n1 (configuration not stated) + Cc1cncc(-c2nc(NCCc3c[nH]c4ccccc34)c3ncn(C(C)C)c3n2)c1 | 0.048 µM | 0.0434 µM | 0.0408 µM | 0.0321 µM | < 0.00316 µM | 60% | 31.8% | 22.5% | 18.1% | 56.8% | 32.7% | 18.7% | 17% | 55.2% | 30% | 18.7% | 49.7% | 25.4% | 44.9% | 33.2% | viability, T/C [36]: 87.5%; viability, T/C [37]: 82.6%; viability, T/C [38]: 88.3%; viability, T/C [39]: 78.6%; viability, T/C [40]: 74.5%; viability, T/C [41]: 73%; viability, T/C [21]: 17.1%; viability, T/C [42]: 60.3%; viability, T/C [43]: 64.1%; viability, T/C [26]: 17.9%; viability, T/C [27]: 17.9%; viability, T/C [44]: 41%; viability, T/C [45]: 48.1%; viability, T/C [32]: 25.8%; viability, T/C [33]: 22.2% |
| O=C(C=Cn1cnc(-c2cc(C(F)(F)F)cc(C(F)(F)F)c2)n1)NNc1cnccn1 |  |  |  |  |  |  |  |  |  |  |  |  |  |  |  |  |  |  |  |  | viability, T/C (compound 0.00949 µM): 104% and 95% and 86.6%; viability, T/C (compound 0.03 µM): 97.2% and 93% and 80.9%; viability, T/C (compound 0.0949 µM): 64.4% and 58.7% and 54.5%; viability, T/C (compound 0.3 µM): 39.5% and 34.5% and 32.4%; viability, T/C (compound 0.949 µM): 25.6% and 18.9% and 22.2%; viability, T/C (compound 3 µM): 15.2% and 10.5% and 13.3%; IC50 (curve of compound): 0.191 µM and 0.154 µM and 0.129 µM |
| Cn1ncnc1C1c2n[nH]c(=O)c3cc(F)cc(c23)NC1c1ccc(F)cc1 (configuration not stated) + CC(CO)NC(=O)c1cc(-c2ccc(Cl)cc2)nn(-c2cnn(C)c2)c1=O | > 0.1 µM | > 0.1 µM | > 0.1 µM | > 0.1 µM | > 0.1 µM | 94.3% | 87.6% |  |  | 96.5% | 79.9% |  |  | 86.3% | 94.3% |  | 77.1% | 77.4% | 67% | 64.6% | viability, T/C (second compound 0.1 µM, first compound 0.000316 µM): 103%; viability, T/C (second compound 0.1 µM, first compound 0.001 µM): 109%; viability, T/C [36]: 100%; viability, T/C [37]: 99.8%; viability, T/C (second compound 0.316 µM, first compound 0.000316 µM): 109%; viability, T/C (second compound 0.316 µM, first compound 0.001 µM): 97.5%; viability, T/C [38]: 104%; viability, T/C [39]: 96%; viability, T/C (second compound 1 µM, first compound 0.000316 µM): 108%; viability, T/C (second compound 1 µM, first compound 0.001 µM): 106%; viability, T/C [40]: 99.6%; viability, T/C [41]: 89.9%; viability, T/C (second compound 3.16 µM, first compound 0.000316 µM): 92.2%; viability, T/C (second compound 3.16 µM, first compound 0.001 µM): 99.2%; viability, T/C [42]: 92.6%; viability, T/C [43]: 92.9%; viability, T/C (second compound 10 µM, first compound 0.000316 µM): 68.5%; viability, T/C (second compound 10 µM, first compound 0.001 µM): 73.3%; viability, T/C [44]: 75.8%; viability, T/C [45]: 73% |
| Nc1ccn(C2OC(CO)C(O)C2(F)F)c(=O)n1 (configuration not stated) + Cc1cncc(-c2nc(NCCc3c[nH]c4ccccc34)c3ncn(C(C)C)c3n2)c1 | < 0.0316 µM | < 0.0316 µM | < 0.0316 µM | < 0.0316 µM | < 0.0316 µM | 8.94% | 10.1% | 9.38% | 9.84% | 10.2% | 9.23% | 9.06% | 8.59% | 12% | 9.47% | 9.26% | 13.8% | 12.3% | 29.8% | 21.1% | viability, T/C [10]: 9.57%; viability, T/C [11]: 7.01%; viability, T/C [16]: 9.76%; viability, T/C [17]: 6.34%; viability, T/C [21]: 9.49%; viability, T/C [22]: 8.78%; viability, T/C [23]: 7.47%; viability, T/C [26]: 10.2%; viability, T/C [27]: 11.6%; viability, T/C [28]: 11.6%; viability, T/C [29]: 8.76%; viability, T/C [32]: 19.3%; viability, T/C [33]: 15.2%; viability, T/C [34]: 15.8%; viability, T/C [35]: 13.4% |
